According to publication PMC4692482, “Structure and Stability of the Dimeric Triosephosphate Isomerase from the Thermophilic Archaeon Thermoplasma acidophilum” (PLoS ONE, 2015):

Target: T1, TaTPI (Thermoplasma acidophilum, UniProt Q9HLB6)
T1 construct: gene tpiA; full length, 216 residues, C-terminal His6-tag (pET-28a(+)), expressed in E. coli Rosetta 2(DE3)pLysS; 24,671 Da monomer; homodimer
Experiment: X-ray crystallography ([…] A)
Assay type: binding
Details: 20 mM G3P incubated with apo protein 4 h at 4 C; pH 8.5; active site (Lys9, His89, Glu137); substrate analogue

T1 sequence (Q9HLB6 whole entry): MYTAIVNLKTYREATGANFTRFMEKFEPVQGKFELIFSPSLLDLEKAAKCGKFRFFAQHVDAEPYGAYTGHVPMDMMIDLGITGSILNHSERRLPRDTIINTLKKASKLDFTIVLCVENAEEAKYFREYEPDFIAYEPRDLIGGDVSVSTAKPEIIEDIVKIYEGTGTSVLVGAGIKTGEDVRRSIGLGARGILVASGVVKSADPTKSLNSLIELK

O=P(O)(O)OC[C@H](O)CO [G3P, glycerol-3-phosphate]
X-ray crystallography (2.17 A): G3P is well positioned at the active site of TaTPI with functionally conserved residues
